Reference: patent EP4417616A1, “LXR ANTAGONISTS” (Ospedale San Raffaele S.r.l., priority 2023, dated 2024)

Experiments:
[1] = system: LLC tumors; test: NMR lipidomic profiling of LLC tumors; settings: PFM037-treated vs vehicle-treated LLC tumors
Method: Extraction of the lipidic and polar fractions from tumor tissues. […] They were resuspended in 170 µL of H2O and 700 µL of methanol and sonicated for 60 sec. Then, 350 µL of chloroform were added and mixed the samples on an orbital shaker in ice for 10 minutes. After that, 350 µL of H2O/chloroform (1:1, v/v) were added to each suspension and centrifuged at 4000 rpm for 10 minutes at 4°C. Thereafter, the aqueous (polar) and lipidic (non-polar) phases were collected separately, transferred to a glass vial and evaporated.
^1H NMR spectra acquisition and data analysis. All the lipidic and polar samples were analyzed using Nuclear Magnetic Resonance (NMR). The lipidic fractions were dissolved in 700 µL of deuterated chloroform (CDCl3) and 0.03 volume percentage of tetramethylsilane (TMS) and inserted in NMR tubes whereas the polar fractions were dissolved in 630 µL of PBS-D2O with the pH adjusted to 7.20, and 70 µL of trimethylsilylpropanoic acid (TSP) (1% in D2O). TMS and TSP were used as the internal standards. […] All ^1H NMR spectra were manually phased and baseline-corrected and referenced to the CH3 resonance of TSP or TMS at 0 ppm. The spectral 0.50-8.60 ppm region of ^1H-NMR spectra was integrated in buckets of 0.04 ppm by AMIX package (Bruker, Biospin, Germany). […]

[2] = Blood plasma chemistry analysis (plasma lipids); format: in vivo; settings: tumor-bearing mice; PFM037 (0.4 µg/day); Fig. 5N
Method: Blood Plasma Chemistry Analysis. For all in vivo experiments mouse blood samples were collected via cardiac puncture and isolated plasma was analyzed by the COBAS c311 system (Roche) for plasma lipids.

[3] = system: B16F1 melanoma expressing OVA; test: Antitumor activity of expanded OT-I T cells in mice bearing B16F1 melanoma expressing OVA; format: in vivo; settings: 7-day established tumors; vs OT-I expanded with IL-2 or IL-7/IL15 without PFM037
Method: To evaluate whether PFM037 induces functional and phenotypic changes of in vitro activated OT-T cells, OT-I T cells were activated in the presence of anti-CD3/CD28 coated beads and IL-2. Forty-eight hours later the cells were differentiated and expanded by IL-7/IL15 (5ng/ml both cytokines) with or without PFM037. Ten, 12 and 15 days later, FACS analysis was performed to evaluate their differentiation status. […] T cells expanded by IL7 and II,15 in the presence of PFM037 also expressed at higher levels the sternness markers Sca1, Tcf1 and CXCR3. […] First, OT-I T cells expanded with IL-2 (effectors) or IL-7/ILIS with or without PFM037 (memory T cells) were injected in mice bearing 7-day established B16F1 melanoma expressing OVA. […] Then, mice bearing MC-38-OVA-liver metastases were treated with vehicle, or OT-I T cells expanded with IL-2 (effectors), or IL-7/IL15 with or without PFM037. Tumor-bearing mice injected with vehicle were all dead 40 days after tumor injection. Twenty percent of tumor-bearing mice treated with OT-I T cells expanded with IL-2 were alive at 60 days, whereas 50% and 80% of tumor-bearing mice treated with IL-7/IL15 with or without PFM037, respectively, were alive at 60 days (Fig. 20). […]

[4] = system: Lewis Lung Carcinoma (LLC); test: Treatment of LLC tumor-bearing mice; format: in vivo
Description: (§1) Tumor challenge experiments.

[5] = system: LLC tumor cells; test: In vitro growth of LLC tumor cells; format: cell-based, mouse; settings: compared with vehicle
[6] = system: melanoma B16F1-OVA; test: Treatment of B16F1-OVA-bearing mice; format: in vivo
Description: as §1

[7] = LLC-bearing mice, 300 µg i.v. 5 days/week from day 6-7, vs vehicle

In the case of CC(C)CC[C@H](O)[C@@H](C)[C@H]1CC[C@H]2[C@@H]3CC=C4C[C@@H](OS(=O)(=O)[O-])CC[C@]4(C)[C@H]3CC[C@]12C.[Na+] [PFM037, 22(S)-Hydroxycholesterol-3-sulfate sodium salt], the “proton signals of ω-3 fatty acid docosahexaenoic acid and its derivatives” value [1] is reported as “lower levels”, the “proton signals of ω-6 fatty acid arachidonic acid and its derivatives” value [1] is reported as “enriched” and the “plasma HDL” value [2] is reported as “reduced levels”. The “plasma LDL” value [2] was “did not change”, the “plasma not esterified fatty acids” value [2] was “reduced levels” and the plasma total cholesterol [2] was “reduced levels”. The plasma triglycerides [2] was “reduced levels”, the “tumor growth control by OT-I T cells expanded with PFM037” value [3] was “significantly better” and the “absolute numbers of tumor-infiltrating mono-DCs” value [4, 7] was “Higher”. For the same molecule, the tumor growth [4, 7] was “delay of tumor growth”, the tumor growth ([4]; established LLC tumors, 300 µg/mouse every other day, Fig. 24B) was “able to control LLC tumor growth” and the “LLC growth in wild type BM-chimera mice” value ([4]; wild type BM-chimera mice, compared to vehicle, Fig. 7C) was “better control of LLC growth”. For the same molecule, the “in vitro growth of LLC tumor cells” value [5] was “grew in a similar manner”, the “antitumor activity, 400 µg compared with 300 µg” value [6] was “much stronger” and the tumor growth ([6]; 400 µg 5 days/week) was “delayed the growth”.
